Columns and labels:
BMMC [1] = assay: Anti-osteoclastogenic activity in C57/BL6 mouse BMMC cells assessed as inhibition of RANKL-induced osteoclast differentiation at 1 uM incubated for 5 to 7 days in presence of M-CSF by TRAP staining based microscopic analysis relative to control; assay type: functional; conditions: time 5-7 day
BMMC [2] = assay: Anti-osteoclastogenic activity in C57/BL6 mouse BMMC cells assessed as inhibition of RANKL-induced osteoclast differentiation at 5 uM incubated for 5 to 7 days in presence of M-CSF by TRAP staining based microscopic analysis relative to control; assay type: functional; conditions: time 5-7 day
BMMC [3] = assay: Anti-osteoclastogenic activity in C57/BL6 mouse BMMC cells assessed as inhibition of RANKL-induced osteoclast differentiation incubated for 5 to 7 days in presence of M-CSF by TRAP staining based microscopic analysis relative to control; assay type: functional, cell-based
BMMC [4] = assay: Cytotoxicity against C57/BL6 mouse BMMC cells assessed as reduction in cell viability at 10 uM incubated for 24 hrs by CCK-8 assay; assay type: toxicity, cell-based
BMMC [5] = assay: Anti-osteoclastogenic activity in C57/BL6 mouse BMMC cells assessed as inhibition of RANKL-induced osteoclast differentiation at 0.01 uM incubated for 5 to 7 days in presence of M-CSF by TRAP staining based microscopic analysis relative to control; assay type: functional; conditions: time 5-7 day
BMMC [6] = assay: Anti-osteoclastogenic activity in C57/BL6 mouse BMMC cells assessed as inhibition of RANKL-induced osteoclast differentiation at 0.1 uM incubated for 5 to 7 days in presence of M-CSF by TRAP staining based microscopic analysis relative to control; assay type: functional; conditions: time 5-7 day

Compound	inhibition at 1 µM (BMMC [1]) [%]	inhibition at 5 µM (BMMC [2]) [%]	IC50 (BMMC [3]) [µM]	Activity (BMMC [4])	inhibition at 0.01 µM (BMMC [5]) [%]	inhibition at 0.1 µM (BMMC [6]) [%]
CC(C)=CCC[C@](C)(O)[C@H]1CC[C@]2(C)[C@@H]1[C@H](O)C[C@@H]1[C@@]3(C)CC[C@H](O)C(C)(C)[C@@H]3CC[C@]12C	10.2	63.9	11.8	>= 100%		
CC(=O)O[C@@H]1C[C@@H]2[C@@]3(C)Cc4cnc(C)nc4C(C)(C)[C@@H]3CC[C@@]2(C)[C@]2(C)CC[C@H]([C@@](C)(O)CCC=C(C)C)[C@@H]12				>= 100%	6.68	62.2
CC(C)=CCC[C@](C)(O)[C@H]1CC[C@]2(C)[C@@H]1[C@H](O)C[C@@H]1[C@@]3(C)Cc4cncnc4C(C)(C)[C@@H]3CC[C@]12C	95.3	100		>= 100%		51.9
CC(C)=CCC[C@](C)(O)[C@H]1CC[C@]2(C)[C@@H]1[C@H](O)C[C@@H]1[C@@]3(C)Cc4cn[nH]c4C(C)(C)[C@@H]3CC[C@]12C	41.2	84.8		>= 100%		
CCOc1ncc2c(n1)C(C)(C)[C@@H]1CC[C@]3(C)[C@H](C[C@@H](O)[C@@H]4[C@@H]([C@@](C)(O)CCC=C(C)C)CC[C@]43C)[C@@]1(C)C2	94.1			86.9%		45.7
CC(C)=CCC[C@](C)(O)[C@H]1CC[C@]2(C)[C@@H]1[C@H](O)C[C@@H]1[C@@]3(C)Cc4cnoc4C(C)(C)[C@@H]3CC[C@]12C	3.2	71.5		>= 100%		
CC(C)=CCC[C@](C)(O)[C@H]1CC[C@]2(C)[C@@H]1[C@@H](O)C[C@@H]1[C@@]3(C)Cc4cnc(C)nc4C(C)(C)[C@@H]3CC[C@]12C				>= 100%	0	84.4
CC(C)=CCC[C@](C)(O)[C@H]1CC[C@]2(C)[C@@H]1C(=O)C[C@@H]1[C@@]3(C)Cc4cnc(C)nc4C(C)(C)[C@@H]3CC[C@]12C				>= 100%	8.68	75.8
CC(C)=CCC[C@](C)(O)[C@H]1CC[C@]2(C)[C@@H]1[C@H](O)C[C@@H]1[C@@]3(C)Cc4nccnc4C(C)(C)[C@@H]3CC[C@]12C	43.7	100		>= 100%		
Cc1ncc2c(n1)C(C)(C)[C@@H]1CC[C@]3(C)[C@H](C[C@@H](O)[C@@H]4[C@@H]([C@@](C)(O)CCCC(C)C)CC[C@]43C)[C@@]1(C)C2				>= 100%	9.2	96
CC(C)=CCC[C@](C)(O)[C@H]1CC[C@]2(C)[C@@H]1[C@H](O)C[C@@H]1[C@@]3(C)Cc4nonc4C(C)(C)[C@@H]3CC[C@]12C	18.8	64.2		>= 100%		
COc1ncc2c(n1)C(C)(C)[C@@H]1CC[C@]3(C)[C@H](C[C@@H](O)[C@@H]4[C@@H]([C@@](C)(O)CCC=C(C)C)CC[C@]43C)[C@@]1(C)C2	93.7			>= 100%		52.6
CC(C)=CC/C=C(\C)[C@H]1CC[C@]2(C)[C@@H]1[C@H](O)C[C@@H]1[C@@]3(C)Cc4cnc(C)nc4C(C)(C)[C@@H]3CC[C@]12C				>= 100%	27.4	96.8
CC(C)=CCC[C@](C)(O)[C@H]1CC[C@]2(C)[C@@H]1/C(=N/O)C[C@@H]1[C@@]3(C)Cc4cnc(C)nc4C(C)(C)[C@@H]3CC[C@]12C				>= 100%	0	61.1
CC(C)=CCC[C@](C)(O)[C@H]1CC[C@]2(C)[C@@H]1[C@H](O)C[C@@H]1[C@@]3(C)Cc4cnc(N)nc4C(C)(C)[C@@H]3CC[C@]12C	100			>= 100%		51.2
CC(C)=CCC[C@](C)(O)[C@H]1CC[C@]2(C)[C@@H]1[C@H](O)C[C@@H]1[C@@]3(C)Cc4cnn(-c5ccccc5)c4C(C)(C)[C@@H]3CC[C@]12C	0	12.9		>= 100%		
CCc1ncc2c(n1)C(C)(C)[C@@H]1CC[C@]3(C)[C@H](C[C@@H](O)[C@@H]4[C@@H]([C@@](C)(O)CCC=C(C)C)CC[C@]43C)[C@@]1(C)C2	100			>= 100%		90.4
CC(C)=CCC[C@](C)(O)[C@H]1CC[C@]2(C)[C@@H]1[C@H](O)C[C@@H]1[C@@]3(C)Cc4cnc(C)nc4C(C)(C)[C@@H]3CC[C@]12C	100			>= 100%	34.5	96.8
CC(C)=CCC[C@](C)(O)[C@H]1CC[C@]2(C)[C@@H]1[C@H](O)C[C@@H]1[C@@]3(C)Cc4cnc(-c5ccccc5)nc4C(C)(C)[C@@H]3CC[C@]12C	45.5			>= 100%		0

— ChEMBL document CHEMBL5321281, “Synthesis and Biological Evaluation of Heterocyclic Ring-Fused 20(S)-Protopanaxadiol Derivatives as Potent Antiosteoporosis Agents” (J Med Chem, 2023)
